IC50 data for 29 molecules are collected here from patent US12344597B2, “Alkoxy-substituted pyridinyl derivatives as LPA1 receptor antagonists and their use in the treatment of fibrosis” (IDORSIA PHARMACEUTICALS LTD, priority 2018, dated 2025).

Each structure is given as a SMILES string.

The target of this experiment is human LPA1 receptor (Homo sapiens (Human), UniProt Q92633). In words: Beta-arrestin recruitment assay to determine IC50 values for human LPAR1. The class given is cell-based. Conditions: antagonist mode, Tango EDG2-bla U2OS cells, LPA 18:1 500 nM final. The method in brief: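 Tango EDG2-bla U2OS cells: LPA-driven beta-arrestin/TEV protease recruitment releases Gal4-VP16, inducing beta-lactamase reporter read with live-cell substrate. Cells seeded 20 h at 37 °C beforehand. IC50 is antagonist concentration inhibiting 50% of maximal response.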
human LPA1 receptor, sequence (Q92633 whole entry, the tested form may be a part): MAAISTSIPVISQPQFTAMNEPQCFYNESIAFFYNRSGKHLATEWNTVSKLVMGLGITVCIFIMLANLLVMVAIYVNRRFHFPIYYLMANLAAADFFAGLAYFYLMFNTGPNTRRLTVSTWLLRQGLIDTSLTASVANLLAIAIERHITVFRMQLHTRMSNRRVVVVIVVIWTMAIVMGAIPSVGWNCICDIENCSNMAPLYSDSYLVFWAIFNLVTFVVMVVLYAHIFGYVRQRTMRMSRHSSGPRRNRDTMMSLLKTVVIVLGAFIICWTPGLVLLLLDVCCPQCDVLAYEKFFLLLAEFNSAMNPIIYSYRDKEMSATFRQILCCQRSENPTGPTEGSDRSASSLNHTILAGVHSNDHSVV
Background: Activated receptors often draw arrestin, which recruitment assays turn into a signal.
Take `Cc1ccc(NC(=O)C2(c3ccccc3C(C)C)CN(C(=O)C3CS(=O)(=O)C3)C2)c(OC(F)F)n1` [Ex 12-129, N-(2-(difluoromethoxy)-6-methylpyridin-3-yl)-1-(1,1-dioxidothietane-3-carbonyl)-3-(2-isopropylphenyl)azetidine-3-carboxamide]: the 50% inhibitory concentration (IC50) (in general, the concentration needed to halve the response being measured) came to 58 nM.
For `CC(=O)N(CCC(=O)N1CC(C(=O)Nc2ccc(C)nc2OC(F)F)(c2ccccc2C(C)C)C1)OCc1ccccc1` [Ex 12-131, 1-(3-(N-(benzyloxy)acetamido)propanoyl)-N-(2-(difluoromethoxy)-6-methylpyridin-3-yl)-3-(2-isopropylphenyl)azetidine-3-carboxamide], half-maximal inhibition (IC50) required 640 nM.
As for `CC(=O)N(O)CCC(=O)N1CC(C(=O)Nc2ccc(C)nc2OC(F)F)(c2ccccc2C(C)C)C1` [Ex 12-132, N-(2-(difluoromethoxy)-6-methylpyridin-3-yl)-1-(3-(N-hydroxyacetamido)propanoyl)-3-(2-isopropylphenyl)azetidine-3-carboxamide], the figure is 35 nM; as for `Cc1ccc(NC(=O)C2(c3ccccc3C(C)C)CN(C(=O)CNOCc3ccccc3)C2)c(OC(F)F)n1` [Ex 12-134, 1-((benzyloxy)glycyl)-N-(2-(difluoromethoxy)-6-methylpyridin-3-yl)-3-(2-isopropylphenyl)azetidine-3-carboxamide], 6 nM; as for `CC(=O)N(CC(=O)N1CC(C(=O)Nc2ccc(C)nc2OC(F)F)(c2ccccc2C(C)C)C1)OCc1ccccc1` [Ex 12-135, 1-(N-acetyl-N-(benzyloxy)glycyl)-N-(2-(difluoromethoxy)-6-methylpyridin-3-yl)-3-(2-isopropylphenyl)azetidine-3-carboxamide], 8 nM.
As for `CC(=O)N(O)CC(=O)N1CC(C(=O)Nc2ccc(C)nc2OC(F)F)(c2ccccc2C(C)C)C1` [Ex 12-136, 1-(N-acetyl-N-hydroxyglycyl)-N-(2-(difluoromethoxy)-6-methylpyridin-3-yl)-3-(2-isopropylphenyl)azetidine-3-carboxamide], the figure is 9 nM; as for `CC(=O)N1CCC(CC(=O)N2CC(C(=O)Nc3ccc(C)nc3OC(F)F)(c3ccccc3C(C)C)C2)CC1` [Ex 12-137, 1-(2-(1-acetylpiperidin-4-yl)acetyl)-N-(2-(difluoromethoxy)-6-methylpyridin-3-yl)-3-(2-isopropylphenyl)azetidine-3-carboxamide], 225 nM; as for `Cc1ccc(NC(=O)C2(c3ccccc3C(C)C)CN(C(=O)CC3CCNCC3)C2)c(OC(F)F)n1` [Ex 12-138, N-(2-(difluoromethoxy)-6-methylpyridin-3-yl)-3-(2-isopropylphenyl)-1-(2-(piperidin-4-yl)acetyl)azetidine-3-carboxamide], 43 nM.
With `COCCN1CCC(CC(=O)N2CC(C(=O)Nc3ccc(C)nc3OC(F)F)(c3ccccc3C(C)C)C2)CC1` [Ex 12-139, N-(2-(difluoromethoxy)-6-methylpyridin-3-yl)-3-(2-isopropylphenyl)-1-(2-(1-(2-methoxyethyl)piperidin-4-yl)acetyl)azetidine-3-carboxamide], the IC50 came to 165 nM.
The figure for `Cc1ccc(NC(=O)C2(c3ccccc3C(C)C)CN(C(=O)CC3CCN(CCF)CC3)C2)c(OC(F)F)n1` [Ex 12-141, N-(2-(difluoromethoxy)-6-methylpyridin-3-yl)-1-(2-(1-(2-fluoroethyl)piperidin-4-yl)acetyl)-3-(2-isopropylphenyl)azetidine-3-carboxamide] is 204 nM; for `Cc1ccc(NC(=O)C2(c3ccccc3C(C)C)CN(C(=O)CN(C)CC(=O)O)C2)c(OC(F)F)n1` [Ex 12-142, N-(2-(3-((2-(difluoromethoxy)-6-methylpyridin-3-yl)carbamoyl)-3-(2-isopropylphenyl)azetidin-1-yl)-2-oxoethyl)-N-methylglycine] it is 18 nM; for `Cc1ccc(NC(=O)C2(c3ccccc3C(C)C)CN(S(=O)(=O)CC(=O)O)C2)c(OC(F)F)n1` [Ex 13-1, 2-((3-((2-(difluoromethoxy)-6-methylpyridin-3-yl)carbamoyl)-3-(2-isopropylphenyl)azetidin-1-yl)sulfonyl)acetic acid] it is 7 nM.
Molecule `COC(=O)CS(=O)(=O)N1CCC(C(=O)Nc2ccc(C)nc2OC(F)F)(c2ccccc2C(C)C)CC1` [Ex 13-2, methyl 2-((4-((2-(difluoromethoxy)-6-methylpyridin-3-yl)carbamoyl)-4-(2-isopropylphenyl)piperidin-1-yl)sulfonyl)acetate] registered a 50% inhibitory concentration (IC50) of 7 nM.
The figure for `Cc1ccc(NC(=O)C2(c3ccccc3C(C)C)CCN(S(=O)(=O)CC(=O)O)CC2)c(OC(F)F)n1` [Ex 13-3, 2-((4-((2-(difluoromethoxy)-6-methylpyridin-3-yl)carbamoyl)-4-(2-isopropylphenyl)piperidin-1-yl)sulfonyl)acetic acid] is 14 nM.
As for `Cc1ccc(NC(=O)C2(c3ccccc3C(C)C)CN(S(=O)(=O)CCC(=O)OCc3ccccc3)C2)c(OC(F)F)n1` [Ex 13-4, Benzyl 3-((3-((2-(difluoromethoxy)-6-methylpyridin-3-yl)carbamoyl)-3-(2-isopropylphenyl)azetidin-1-yl)sulfonyl)propanoate], the figure is 10 nM; as for `Cc1ccc(NC(=O)C2(c3ccccc3C(C)C)CN(S(=O)(=O)CCC(=O)O)C2)c(OC(F)F)n1` [Ex 13-5, 3-((3-((2-(difluoromethoxy)-6-methylpyridin-3-yl)carbamoyl)-3-(2-isopropylphenyl)azetidin-1-yl)sulfonyl)propanoic acid], 4 nM; as for `COC(=O)CCS(=O)(=O)N1CCC(C(=O)Nc2ccc(C)nc2OC(F)F)(c2ccccc2C(C)C)CC1` [Ex 13-6, methyl 3-((4-((2-(difluoromethoxy)-6-methylpyridin-3-yl)carbamoyl)-4-(2-isopropylphenyl)piperidin-1-yl)sulfonyl)propanoate], 26 nM.
As to `Cc1ccc(NC(=O)C2(c3ccccc3C(C)C)CCN(S(=O)(=O)CCC(=O)OCc3ccccc3)CC2)c(OC(F)F)n1` [Ex 13-7, benzyl 3-((4-((2-(difluoromethoxy)-6-methylpyridin-3-yl)carbamoyl)-4-(2-isopropylphenyl)piperidin-1-yl)sulfonyl)propanoate], the half-maximal inhibitory concentration (IC50) was 17 nM.
The molecule `Cc1ccc(NC(=O)C2(c3ccccc3C(C)C)CCN(S(=O)(=O)CCC(=O)O)CC2)c(OC(F)F)n1` [Ex 13-8, 3-((4-((2-(difluoromethoxy)-6-methylpyridin-3-yl)carbamoyl)-4-(2-isopropylphenyl)piperidin-1-yl)sulfonyl)propanoic acid] had an IC50 of 7 nM.
On to `CC(C)c1ccccc1C1(C(=O)Nc2cccnc2OC(F)F)CN(S(=O)(=O)CCC(=O)OCc2ccccc2)C1` [Ex 13-9, benzyl 3-((3-((2-(difluoromethoxy)pyridin-3-yl)carbamoyl)-3-(2-isopropylphenyl)azetidin-1-yl)sulfonyl)propanoate], for which half-maximal inhibition (IC50) required 37 nM.
`CC(C)c1ccccc1C1(C(=O)Nc2cccnc2OC(F)F)CN(S(=O)(=O)CCC(=O)O)C1` [Ex 13-10, 3-((3-((2-(difluoromethoxy)pyridin-3-yl)carbamoyl)-3-(2-isopropylphenyl)azetidin-1-yl)sulfonyl)propanoic acid] displayed an IC50 of 20 nM. This IC50 is about 1.9-fold lower than that of the molecule before.
As for `COC(=O)C(C)(C)CS(=O)(=O)N1CC(C(=O)Nc2ccc(C)nc2OC(F)F)(c2ccccc2C(C)C)C1` [Ex 13-11, methyl 3-((3-((2-(difluoromethoxy)-6-methylpyridin-3-yl)carbamoyl)-3-(2-isopropylphenyl)azetidin-1-yl)sulfonyl)-2,2-dimethylpropanoate], the figure is 366 nM; as for `Cc1ccc(NC(=O)C2(c3ccccc3C(C)C)CN(S(=O)(=O)CC(C)(C)C(=O)O)C2)c(OC(F)F)n1` [Ex 13-12, 3-((3-((2-(difluoromethoxy)-6-methylpyridin-3-yl)carbamoyl)-3-(2-isopropylphenyl)azetidin-1-yl)sulfonyl)-2,2-dimethylpropanoic acid], 4 nM; as for `CCOC(=O)CC1(S(=O)(=O)N2CC(C(=O)Nc3ccc(C)nc3OC(F)F)(c3ccccc3C(C)C)C2)CC1` [Ex 13-13, ethyl 2-(1-((3-((2-(difluoromethoxy)-6-methylpyridin-3-yl)carbamoyl)-3-(2-isopropylphenyl)azetidin-1-yl)sulfonyl)cyclopropyl)acetate], 1760 nM.
The figure for `Cc1ccc(NC(=O)C2(c3ccccc3C(C)C)CN(S(=O)(=O)C3(CC(=O)O)CC3)C2)c(OC(F)F)n1` [Ex 13-14, 2-(1-((3-((2-(difluoromethoxy)-6-methylpyridin-3-yl)carbamoyl)-3-(2-isopropylphenyl)azetidin-1-yl)sulfonyl)cyclopropyl)acetic acid] is 10 nM; for `COC(=O)C1(CS(=O)(=O)N2CC(C(=O)Nc3ccc(C)nc3OC(F)F)(c3ccccc3C(C)C)C2)COC1` [Ex 13-15, methyl 3-(((3-((2-(difluoromethoxy)-6-methylpyridin-3-yl)carbamoyl)-3-(2-isopropylphenyl)azetidin-1-yl)sulfonyl)methyl)oxetane-3-carboxylate] it is 280 nM; for `Cc1ccc(NC(=O)C2(c3ccccc3C(C)C)CN(S(=O)(=O)CC3(C(=O)O)COC3)C2)c(OC(F)F)n1` [Ex 13-16, 3-(((3-((2-(difluoromethoxy)-6-methylpyridin-3-yl)carbamoyl)-3-(2-isopropylphenyl)azetidin-1-yl)sulfonyl)methyl)oxetane-3-carboxylic acid] it is 16 nM.
Molecule `Cc1ccc(NC(=O)C2(c3ccccc3C(C)C)CN(S(=O)(=O)CCCC(=O)O)C2)c(OC(F)F)n1` [Ex 13-17, 4-((3-((2-(difluoromethoxy)-6-methylpyridin-3-yl)carbamoyl)-3-(2-isopropylphenyl)azetidin-1-yl)sulfonyl)butanoic acid] showed a 50% inhibitory concentration (IC50) of 7 nM.
`COC(=O)CCCCS(=O)(=O)N1CC(C(=O)Nc2ccc(C)nc2OC(F)F)(c2ccccc2C(C)C)C1` [Ex 13-18, methyl 5-((3-((2-(difluoromethoxy)-6-methylpyridin-3-yl)carbamoyl)-3-(2-isopropylphenyl)azetidin-1-yl)sulfonyl)pentanoate] came in with an IC50 of 72 nM.
